± gives the standard deviation of the averaged measurements or the uncertainty stated by the source.

Experimental findings from the supplement of paper PMC5321775 are described below.

Test [1] concerns Caenorhabditis briggsae AF16. In words: mean adult lifespan of treated cohort (days); higher = longer lifespan. As to conditions: exposure: chronic from day 1 of adulthood, single dose per compound (concentration not stated in sheet). The protocol: (§1)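 Caenorhabditis lifespan assay (CITP). Synchronised hermaphrodites were moved on the first day of adulthood onto 35 mm NGM plates with live E. coli OP50-1 and 51 uM FUdR, with the compound spread on the plate. Worms were kept at 20 C and scored for survival.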

Test [2] has as its system Caenorhabditis briggsae HK104. Described as above. As to conditions: exposure: chronic from day 1 of adulthood, single dose per compound (concentration not stated in sheet). Here is the method: as §1
The subject of test [3] is Caenorhabditis briggsae JU1348. The description is as above. Conditions: exposure: chronic from day 1 of adulthood, single dose per compound (concentration not stated in sheet). The protocol:
as §1

Test [4] has as its system Caenorhabditis elegans JU775. The test is described as above. As to conditions: exposure: chronic from day 1 of adulthood, single dose per compound (concentration not stated in sheet). Here is the method:
as §1

In test [5] the test system is Caenorhabditis elegans MY16. The test is described as above. As to conditions: exposure: chronic from day 1 of adulthood, single dose per compound (concentration not stated in sheet). Here is the method: as §1
The subject of test [6] is Caenorhabditis elegans N2. The description is as above. As to conditions: exposure: chronic from day 1 of adulthood, single dose per compound (concentration not stated in sheet). The protocol: as §1
Test [7] deals with Caenorhabditis briggsae AF16. Description: Kaplan-Meier median lifespan of treated cohort (days); higher = longer lifespan. Conditions: exposure: chronic from day 1 of adulthood, single dose per compound (concentration not stated in sheet). Here is the method:
as §1

For test [8], the system named is Caenorhabditis briggsae HK104. Described as above. Conditions: exposure: chronic from day 1 of adulthood, single dose per compound (concentration not stated in sheet). Here is the method:
as §1

For test [9], the system named is Caenorhabditis briggsae JU1348. The test is described as above. As to conditions: exposure: chronic from day 1 of adulthood, single dose per compound (concentration not stated in sheet). The protocol:
as §1

The test system of test [10] is Caenorhabditis elegans JU775. The description is as above. As to conditions: exposure: chronic from day 1 of adulthood, single dose per compound (concentration not stated in sheet). The protocol: as §1
In test [11] the test system is Caenorhabditis elegans MY16. The test is described as above. Conditions: exposure: chronic from day 1 of adulthood, single dose per compound (concentration not stated in sheet). The protocol: as §1
Test [12] has as its system Caenorhabditis elegans N2. The description is as above. As to conditions: exposure: chronic from day 1 of adulthood, single dose per compound (concentration not stated in sheet). The protocol:
as §1

Test [13] relates to Caenorhabditis briggsae AF16. In words: mean adult lifespan of treated plate (days); higher = longer lifespan. As to conditions: exposure: chronic from day 1 of adulthood. The protocol: (§2)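 Dose-response lifespan assays in three C. briggsae strains (AF16, HK104, JU1348), run per plate (35-40 animals) on NGM with live OP50-1 and 51 uM FUdR at 20 C. Compound was added to the plate surface and worms were exposed from the first day of adulthood.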

For test [14], the system named is Caenorhabditis briggsae HK104. The description is as above. Conditions: exposure: chronic from day 1 of adulthood. Here is the method: as §2
In test [15] the test system is Caenorhabditis briggsae JU1348. The test is described as above. Conditions: exposure: chronic from day 1 of adulthood. Here is the method:
as §2

The test system of test [16] is Caenorhabditis briggsae AF16. In words: Kaplan-Meier median lifespan of treated plate (days); higher = longer lifespan. Conditions: exposure: chronic from day 1 of adulthood. The protocol:
as §2

Test [17] has as its system Caenorhabditis briggsae HK104. The test is described as above. Conditions: exposure: chronic from day 1 of adulthood. The protocol: as §2
The subject of test [18] is Caenorhabditis briggsae JU1348. The description is as above. Conditions: exposure: chronic from day 1 of adulthood. Here is the method: as §2

Consider `CC(=O)Oc1ccccc1C(=O)O` [aspirin], for which the “mean adult lifespan of treated cohort” value in test [1] worked out at 27 ± 0.81; in test [2], 37.2 ± 1; in test [3] it was 28 ± 1.1; in [4], 18.3 ± 0.55; in test [5] it was 17 ± 0.49; in test [6] it was 17.9 ± 0.3. The Kaplan-Meier median lifespan in test [7] is 27.8 ± 3.7; in [8], 37.5 ± 1.9; in [9], 28.3 ± 4.4; in test [10], 17.4 ± 4.3; in [11], 16.4 ± 1.4; in test [12], 17.5 ± 1.1.

On to `COc1cc(/C=C/C(=O)CC(=O)/C=C/c2ccc(O)c(OC)c2)ccc1O` [curcumin], for which the “mean adult lifespan of treated cohort” value was 21.9 ± 0.82 in [1]; 30.5 ± 0.87 in test [2]; 21.3 ± 0.66 in test [3]; 19.5 ± 0.66 in test [4]; 15.6 ± 0.46 in [5]; 17.1 ± 0.34 in test [6]. Further, the Kaplan-Meier median lifespan was 23.2 ± 1.7 in test [7]; 30.7 ± 2.2 in test [8]; 21.2 ± 2.8 in test [9]; 19.3 ± 2 in [10]; 15.3 ± 1.6 in test [11]; 17.7 ± 0.82 in [12].

For the compound `CCCOC(=O)c1cc(O)c(O)c(O)c1` [propyl gallate], the “mean adult lifespan of treated plate” value in test [13] (20 µM) came out at 26.6 ± 1.5; in test [13] (100 µM), 25 ± 1.5; in test [13] (200 µM), 27.2 ± 1.1; in test [13] (400 µM) it was 25.2 ± 1.4; in test [13] (4000 µM), 18 ± 1.1; in [14] (20 µM) it was 33.5 ± 1.6. The “mean adult lifespan of treated plate” value in test [14] (100 µM) turned out to be 35 ± 1.6; in [14] (200 µM), 33.9 ± 1.3; in test [14] (400 µM), 35.1 ± 1.4; in test [14] (4000 µM), 21.9 ± 1.4; in test [15] (20 µM) it was 23.8 ± 1.1; in test [15] (100 µM) it was 26 ± 1.4. Also, the “mean adult lifespan of treated plate” value in test [15] (200 µM) is 22.8 ± 1.1; in test [15] (400 µM) it was 24.7 ± 1.2; in test [15] (4000 µM) it was 19.5 ± 0.94. The “mean adult lifespan of treated cohort” value amounted to 24.8 ± 0.89 in [1]; 33.4 ± 1 in [2]; 24.5 ± 0.75 in [3]; 21.5 ± 0.74 in [4]; 18.3 ± 0.57 in test [5]; 19 ± 0.4 in test [6]. The Kaplan-Meier median lifespan in test [16] (20 µM) is 26.4 ± 2.5; in test [16] (100 µM), 26.6 ± 2.9; in test [16] (200 µM), 28.3 ± 0.58; in test [16] (400 µM), 26.6 ± 2.4; in [16] (4000 µM), 17.6 ± 4.5; in test [17] (20 µM), 35.4 ± 5.3. Moreover, the Kaplan-Meier median lifespan came out at 36.8 ± 3.5 in test [17] (100 µM); 35 in test [17] (200 µM); 35.5 ± 3.6 in test [17] (400 µM); 22.2 ± 6.4 in [17] (4000 µM); 24.6 ± 4.2 in test [18] (20 µM); 27.3 ± 4.3 in [18] (100 µM). In addition, the Kaplan-Meier median lifespan was 21 in test [18] (200 µM); 24.1 ± 4.8 in test [18] (400 µM); 19.4 ± 2.1 in [18] (4000 µM); 24.7 ± 2 in test [7]; 35.5 ± 3 in test [8]; 24.7 ± 4 in [9]. Moreover, the values for the Kaplan-Meier median lifespan in [10], in test [11] and in test [12] were 22.3 ± 2, 18.3 ± 3.9 and 18.3 ± 0.82, respectively.

In the case of `Oc1ccc(/C=C/c2cc(O)cc(O)c2)cc1` [resveratrol], the “mean adult lifespan of treated plate” value in [13] (10 µM) worked out at 26.1 ± 1.4; in [13] (50 µM) it was 26.9 ± 1.2; in test [13] (200 µM), 26.9 ± 1.6; in test [13] (1000 µM) it was 27.6 ± 1.3; in test [14] (10 µM), 35.9 ± 1.3; in [14] (50 µM), 33 ± 1.3. For the same compound, the “mean adult lifespan of treated plate” value in test [14] (200 µM) came out at 35.5 ± 1.5; in test [14] (1000 µM), 34.7 ± 1.3; in test [15] (10 µM), 25.9 ± 1.5; in test [15] (50 µM), 25.7 ± 1.1; in test [15] (200 µM) it was 22.9 ± 1.1; in test [15] (1000 µM), 23.6 ± 1. Besides, the “mean adult lifespan of treated cohort” value in test [1] is 24.6 ± 0.91; in [2] it was 33.5 ± 1; in test [3] it was 25.5 ± 0.79; in test [4] it was 22.9 ± 0.69; in [5] it was 18.3 ± 0.59; in test [6], 19.2 ± 0.46. In addition, the Kaplan-Meier median lifespan came to 26.1 ± 1.4 in test [16] (10 µM); 27.8 ± 2.7 in [16] (50 µM); 26.3 ± 1.8 in test [16] (200 µM); 28.1 ± 2.2 in [16] (1000 µM); 36.8 ± 3.5 in test [17] (10 µM); 36.2 ± 3.3 in test [17] (50 µM). For the same compound, the Kaplan-Meier median lifespan is 36.9 ± 3 in test [17] (200 µM); 35.6 ± 3.6 in test [17] (1000 µM); 25.7 ± 4.7 in [18] (10 µM); 25.7 ± 4.7 in [18] (50 µM); 23.2 ± 3.4 in [18] (200 µM); 22.6 ± 2.6 in test [18] (1000 µM). Moreover, the Kaplan-Meier median lifespan in test [7] came out at 24.2 ± 1.5; in test [8], 35.8 ± 3.4; in test [9] it was 25.5 ± 1.6; in [10], 24.2 ± 1.7; in test [11], 18.3 ± 1.5; in test [12], 19.2 ± 1.2.

For `O=C(O)CCCCC1CCSS1` (stereo not drawn) [alpha-lipoic acid], the “mean adult lifespan of treated cohort” value in test [1] was determined as 27.5 ± 0.76; in test [2], 35.9 ± 0.96; in test [3] it was 26.4 ± 0.83; in [4], 18.3 ± 0.61; in [5], 16.3 ± 0.61; in test [6], 19.2 ± 0.4. In addition, the Kaplan-Meier median lifespan was found to be 28.4 ± 3.2 in [7]; 37.2 ± 1.3 in test [8]; 25.8 ± 1.5 in test [9]; 18.4 ± 4.2 in test [10]; 15.6 ± 2.1 in test [11]; 19.2 ± 1.5 in [12].

On to `O=c1c(O)c(-c2ccc(O)c(O)c2)oc2cc(O)cc(O)c12` [quercetin], for which the “mean adult lifespan of treated cohort” value in test [1] is 26.5 ± 0.79; in test [2], 33 ± 0.87; in test [3] it was 25.2 ± 0.76; in test [4] it was 17.4 ± 0.69; in [5] it was 15.9 ± 0.49; in test [6], 17.6 ± 0.32. In addition, the Kaplan-Meier median lifespan in [7] was 28 ± 2.2; in [8], 35.5 ± 1.7; in [9], 24.8 ± 2.5; in test [10], 15.2 ± 2.1; in test [11], 15 ± 1.8; in test [12], 17.8 ± 0.96.

Turning to `CCCC(CCC)C(=O)O` [valproic acid], the “mean adult lifespan of treated cohort” value came to 21.8 ± 0.98 in [1]; 32.9 ± 0.96 in test [2]; 21.9 ± 0.85 in [3]; 18.2 ± 0.56 in test [4]; 14.7 ± 0.48 in test [5]; 17.6 ± 0.42 in test [6]. Moreover, the Kaplan-Meier median lifespan came to 22 ± 2.6 in [7]; 35.3 ± 1.9 in [8]; 21.9 ± 1.2 in test [9]; 17.4 ± 3.1 in test [10]; 14.6 ± 0.98 in [11]; 17.6 ± 0.54 in test [12].
